According to patent US8399465B2, “Compounds with two fused bicyclic heteroaryl moieties as modulators of leukotriene A4 hydrolase” (Janssen Pharmaceutica NV, priority 2009, dated 2013):
Where a name gives a salt, the structure may show the parent alone. Read-outs that look alike come from different tables or passages of the source.

Assays:
[1] = molecular target: T1, recombinant human LTA4 hydrolase (rhLTA4H) (Homo sapiens, UniProt P09960); test: Recombinant human LTA4 hydrolase assay for LTA4 hydrolase inhibitor activity; assay type: biochemical; settings: rhLTA4H, LTB4 by immunoassay; single determination or average of two or more; mark after value = form tested: ′ free base, ″ hydrochloride, ^ formate; read-out: IC50
T1 construct: made in house; host or cells: Spodoptera frugiperda (Sf-9) cells, baculovirus (pFastBac1)
T1 sequence (P09960 1-611): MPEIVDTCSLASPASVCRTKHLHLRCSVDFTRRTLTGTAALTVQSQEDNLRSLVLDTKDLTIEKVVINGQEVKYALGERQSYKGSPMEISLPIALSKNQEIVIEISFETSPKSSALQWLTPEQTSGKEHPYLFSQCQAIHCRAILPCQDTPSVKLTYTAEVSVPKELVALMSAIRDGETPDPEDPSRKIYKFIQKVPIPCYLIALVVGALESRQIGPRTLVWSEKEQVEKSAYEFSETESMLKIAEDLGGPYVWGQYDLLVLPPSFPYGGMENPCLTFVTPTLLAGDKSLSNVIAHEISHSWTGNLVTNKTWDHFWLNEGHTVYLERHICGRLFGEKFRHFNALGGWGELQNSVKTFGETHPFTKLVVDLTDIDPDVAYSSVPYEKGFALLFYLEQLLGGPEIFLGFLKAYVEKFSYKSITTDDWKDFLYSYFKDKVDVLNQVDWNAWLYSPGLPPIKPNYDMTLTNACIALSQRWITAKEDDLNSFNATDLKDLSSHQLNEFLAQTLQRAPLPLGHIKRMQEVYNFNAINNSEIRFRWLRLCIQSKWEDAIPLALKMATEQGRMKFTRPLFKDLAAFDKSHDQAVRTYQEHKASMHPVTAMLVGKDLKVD
In short: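 LTB4 formation, measured by enzyme immunoassay, was the read-out. The enzyme, recombinant human LTA4H expressed in Sf-9 insect cells (10 ng per reaction), was exposed to compound for 10 min at room temperature before hydrolysed-ester LTA4 substrate was added for 30 min. Enzyme-free negatives were included.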

[2] = test system: LTB4 production in murine blood (LTA4H); test: LTB4 production by calcium ionophore-stimulated murine blood for LTA4H inhibitor activity; assay type: cell-based, CD-1 mice; settings: Mus musculus
In short: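 LTB4 was measured by ELISA in supernatants after calcium ionophore A23187 stimulation (final 7 μg/mL, 30 min, 37° C) of CD-1 mouse blood collected on heparin. Compound was preincubated with the blood for 15 min beforehand. Values come from one determination or average several.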

[3] = murine blood diluted 1 in 15, A23187 stimulated, single determination or average, mark after value = form tested: ′ free base, ″ hydrochloride, ^ formate, read-out: IC50

Compound | IC50 [1] [nM] | IC50 [2, 3] [nM] | IC50 [2] [nM]
CN(Cc1ccco1)Cc1coc2cc(Oc3nc4ncccc4s3)ccc12 [Example 176, Furan-2-ylmethyl-methyl-[6-(thiazolo[4,5-b]pyridin-2-yloxy)-benzofuran-3-ylmethyl]-amine] | 60 | 200 | –
CN(Cc1cccnc1)Cc1coc2cc(Oc3nc4ncccc4s3)ccc12 [Example 178, Methyl-pyridin-3-ylmethyl-[6-(thiazolo[4,5-b]pyridin-2-yloxy)-benzofuran-3-ylmethyl]-amine] | 20 | 290 | –
O=C1CCCN1C1CCN(Cc2coc3cc(Oc4nc5ccccc5s4)ccc23)CC1 [Example 179, 1-{1-[6-(Benzothiazol-2-yloxy)-benzofuran-3-ylmethyl]-piperidin-4-yl}-pyrrolidin-2-one] | 11 | 75 | –
CC(=O)NC1CCN(Cc2coc3cc(Oc4nc5ccccc5s4)ccc23)CC1 [Example 180, N-{1-[6-(Benzothiazol-2-yloxy)-benzofuran-3-ylmethyl]-piperidin-4-yl}-acetamide] | 21 | 38 | –
CC(=O)N[C@H]1C[C@H]2CC[C@@H](C1)N2Cc1coc2cc(Oc3nc4ccccc4s3)ccc12 [Example 181, meso-endo-N-{8-[6-(Benzothiazol-2-yloxy)-benzofuran-3-ylmethyl]-8-aza-bicyclo[3.2.1]oct-3-yl}-acetamide] | 3 | 33 | –
FC(F)(F)C1CCN(Cc2cc3ccc(Oc4nc5ncccc5s4)cc3o2)CC1 [Example 191, 2-[2-(4-Trifluoromethyl-piperidin-1-ylmethyl)-benzofuran-6-yloxy]-thiazolo[4,5-b]pyridine formate] | 10 | 833 | –
c1cnc2nc(Oc3ccc4cc(CN5CCCCC5)oc4c3)sc2c1 [Example 192, 2-(2-Piperidin-1-ylmethyl-benzofuran-6-yloxy)-thiazolo[4,5-b]pyridine formate] | 43 | – | 120
NC(=O)N1C[C@H]2C[C@@H]1CN2Cc1cc2ccc(Oc3nc4ncccc4s3)cc2o1 [Example 193, (1R,4R)-5-[6-(Thiazolo[4,5-b]pyridin-2-yloxy)-benzofuran-2-ylmethyl]-2,5-diaza-bicyclo[2.2.1]heptane-2-carboxylic acid amide] | 52 | 260 | –
NC(=O)N1CC2CN(Cc3cc4ccc(Oc5nc6ncccc6s5)cc4o3)CC2C1 (stereo not drawn) [Example 194, 5-[6-(Thiazolo[4,5-b]pyridin-2-yloxy)-benzofuran-2-ylmethyl]-hexahydro-pyrrolo[3,4-c]pyrrole-2-carboxylic acid amide] | 39 | 260 | –
CC(=O)N1CC2CN(Cc3cc4ccc(Oc5nc6ncccc6s5)cc4o3)CC2C1 (stereo not drawn) [Example 195, 1-{5-[6-(Thiazolo[4,5-b]pyridin-2-yloxy)-benzofuran-2-ylmethyl]-hexahydro-pyrrolo[3,4-c]pyrrol-2-yl}-ethanone] | 80 | 151 | –
CC(=O)N1C[C@H]2CC[C@@H](C1)N2Cc1cc2ccc(Oc3nc4cnccc4s3)cc2o1 [Example 202, meso-1-{8-[6-(Thiazolo[4,5-c]pyridin-2-yloxy)-benzofuran-2-ylmethyl]-3,8-diaza-bicyclo[3.2.1]oct-3-yl}ethanone] | 1520 | 2700 | –
CC(=O)N1C[C@H]2CC[C@@H](C1)N2Cc1cc2cc(Oc3nc4cnccc4s3)ccc2o1 [Example 206, meso-1-{8-[5-(Thiazolo[4,5-c]pyridin-2-yloxy)-benzofuran-2-ylmethyl]-3,8-diaza-bicyclo[3.2.1]oct-3-yl}-ethanone] | 147 | 340 | –
NC(=O)N[C@@H]1C[C@H]2CC[C@@H](C1)N2Cc1coc2cc(Oc3nc4ncccc4s3)ccc12 [Example 207, meso-exo-{8-[6-(Thiazolo[4,5-b]pyridin-2-yloxy)-benzofuran-3-ylmethyl]-8-aza-bicyclo[3.2.1]oct-3-yl}-urea] | 1 | 160 | –
NC(=O)N1C[C@H]2CC[C@@H](C1)N2Cc1coc2cc(Oc3nc4ncccc4s3)ccc12 [Example 210, meso-8-[6-(Thiazolo[4,5-b]pyridin-2-yloxy)-benzofuran-3-ylmethyl]-3,8-diaza-bicyclo[3.2.1]octane-3-carboxylic acid amide] | 5 | 34 | –
c1cnc2nc(Oc3ccc4c(CN5CCCCC5)coc4c3)sc2c1 [Example 212, 2-(3-Piperidin-1-ylmethyl-benzofuran-6-yloxy)-thiazolo[4,5-b]pyridine] | 4 | 19 | –
c1cnc(OC2CCN(Cc3coc4cc(Oc5nc6ncccc6s5)ccc34)CC2)nc1 [Example 217, 2-{3-[4-(Pyrimidin-2-yloxy)-piperidin-1-ylmethyl]-benzofuran-6-yloxy}-thiazolo[4,5-b]pyridine] | 4 | 36 | –
CCN(CC)Cc1coc2cc(Oc3nc4ncccc4s3)ccc12 [Example 219, Diethyl-[6-(thiazolo[4,5-b]pyridin-2-yloxy)-benzofuran-3-ylmethyl]-amine] | 2 | 20 | –
c1cnc2nc(Oc3ccc4c(CN5CCC(c6ccncc6)CC5)coc4c3)sc2c1 [Example 220, 1-[6-(Thiazolo[4,5-b]pyridin-2-yloxy)-benzofuran-3-ylmethyl]-1,2,3,4,5,6-hexahydro-[4,4′]bipyridinyl] | 5 | 12 | –
CCOC(=O)C1CCN(Cc2coc3cc(Oc4nc5ncccc5s4)ccc23)CC1 [Example 224, 1-[6-(Thiazolo[4,5-b]pyridin-2-yloxy)-benzofuran-3-ylmethyl]-piperidine-4-carboxylic acid ethyl ester] | 2 | 366 | –
NC(=O)N1CCC(N(Cc2coc3cc(Oc4nc5ncccc5s4)ccc23)C2CC2)CC1 [Example 242, 4-{Cyclopropyl-[6-(thiazolo[4,5-b]pyridin-2-yloxy)-benzofuran-3-ylmethyl]-amino}-piperidine-1-carboxylic acid amide] | 32 | 68 | –
CS(=O)(=O)N1CCN(Cc2coc3cc(Oc4nc5ncccc5s4)ccc23)CC1 [Example 243, 2-[3-(4-Methanesulfonyl-piperazin-1-ylmethyl)-benzofuran-6-yloxy]-thiazolo[4,5-b]pyridine] | 6 | 80 | –
CS(=O)(=O)N1C[C@@H]2CC[C@H]1CN2Cc1coc2cc(Oc3nc4ncccc4s3)ccc12 [Example 245, (1S,4S)-2-Methanesulfonyl-5-[6-(thiazolo[4,5-b]pyridin-2-yloxy)-benzofuran-3-ylmethyl]-2,5-diaza-bicyclo[2.2.2]octane] | 4 | 32 | –
CS(=O)(=O)N1CCC(N(Cc2coc3cc(Oc4nc5ncccc5s4)ccc23)C2CC2)CC1 [Example 246, Cyclopropyl-(1-methanesulfonyl-piperidin-4-yl)-[6-(thiazolo[4,5-b]pyridin-2-yloxy)-benzofuran-3-ylmethyl]-amine] | 14 | 90 | –
CS(=O)(=O)N1CCCN(Cc2coc3cc(Oc4nc5ncccc5s4)ccc23)CC1 [Example 247, 2-[3-(4-Methanesulfonyl-[1,4]diazepan-1-ylmethyl)-benzofuran-6-yloxy]-thiazolo[4,5-b]pyridine] | 9 | 24 | –
